Laboratory results reported in the supplement of paper PMC10307832.

Legend:
Assay in all cases: relative viability (nuclei count vs DMSO), 5 days (fraction); higher = more cells survive
IPA-3 + Olaparib = compound: C1=CC=C2C(=C1)C=CC(=C2SSC3=C(C=CC4=CC=CC=C43)O)O [IPA-3] + O=C(c1cc(Cc2n[nH]c(=O)c3ccccc23)ccc1F)N1CCN(C(=O)C2CC2)CC1 [Olaparib] (partner 8 µM)
How it was run: (§1)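 Lung cancer cell lines were pin-tool dosed in 1536-well plates on the day after seeding, with either a lone drug or a fixed anchor-drug dose plus five library-drug doses (not always all listed) in √10 steps. Nuclei were counted on 4× images after 5 days. Relative viability is the ratio of treated-well to vehicle-well nuclei counts, with each value a median of duplicate plates.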

Doramapimod + Pemetrexed = compound: Cc1ccc(-n2nc(C(C)(C)C)cc2NC(=O)Nc2ccc(OCCN3CCOCC3)c3ccccc23)cc1 [Doramapimod] + Nc1nc2[nH]cc(CCc3ccc(C(=O)N[C@@H](CCC(=O)O)C(=O)O)cc3)c2c(=O)[nH]1 [Pemetrexed] (partner 0.2 µM)
How it was run: as §1

Doramapimod + Olaparib = compound: Cc1ccc(-n2nc(C(C)(C)C)cc2NC(=O)Nc2ccc(OCCN3CCOCC3)c3ccccc23)cc1 [Doramapimod] + O=C(c1cc(Cc2n[nH]c(=O)c3ccccc23)ccc1F)N1CCN(C(=O)C2CC2)CC1 [Olaparib] (partner 8 µM)
How it was run: as §1

Doramapimod + Phenformin = compound: Cc1ccc(-n2nc(C(C)(C)C)cc2NC(=O)Nc2ccc(OCCN3CCOCC3)c3ccccc23)cc1 [Doramapimod] + N=C(N)NC(=N)NCCc1ccccc1 [Phenformin] (partner 250 µM)
How it was run: as §1

Cell Line | relative viability (IPA-3 + Olaparib; first compound 0.2 µM) | relative viability (IPA-3 + Olaparib; first compound 0.6325 µM) | relative viability (IPA-3 + Olaparib; first compound 2 µM) | relative viability (IPA-3 + Olaparib; first compound 6.325 µM) | relative viability (IPA-3 + Olaparib; first compound 20 µM) | relative viability (Doramapimod + Pemetrexed; first compound 0.02 µM) | relative viability (Doramapimod + Pemetrexed; first compound 0.06325 µM) | relative viability (Doramapimod + Pemetrexed; first compound 0.2 µM) | relative viability (Doramapimod + Pemetrexed; first compound 0.6325 µM) | relative viability (Doramapimod + Pemetrexed; first compound 2 µM) | relative viability (Doramapimod + Olaparib; first compound 0.02 µM) | relative viability (Doramapimod + Olaparib; first compound 0.06325 µM) | relative viability (Doramapimod + Olaparib; first compound 0.2 µM) | relative viability (Doramapimod + Olaparib; first compound 0.6325 µM) | relative viability (Doramapimod + Olaparib; first compound 2 µM) | relative viability (Doramapimod + Phenformin; first compound 0.02 µM) | relative viability (Doramapimod + Phenformin; first compound 0.06325 µM) | relative viability (Doramapimod + Phenformin; first compound 0.2 µM) | relative viability (Doramapimod + Phenformin; first compound 0.6325 µM) | relative viability (Doramapimod + Phenformin; first compound 2 µM)
NCI-H522 | 0.52 | 0.663 | 0.699 | 0.571 | 0.671 | 0.909 | 1.05 | 0.797 | 0.715 | 0.796 | 0.582 | 0.669 | 0.696 | 0.604 | 0.608 | 0.6 | 0.573 | 0.621 | 0.677 | 0.603
NCI-H1944 | 0.452 | 0.409 | 0.405 | 0.435 | 0.395 | 0.573 | 0.623 | 0.503 | 0.595 | 0.572 | 0.394 | 0.434 | 0.438 | 0.409 | 0.371 | 0.181 | 0.201 | 0.196 | 0.227 | 0.166
NCI-H727 | 0.659 | 0.946 | 0.638 | 0.656 | 0.698 | – | – | – | – | – | 0.711 | 0.723 | 0.772 | 0.726 | 0.595 | 0.652 | 0.498 | 0.445 | 0.544 | 0.576
NCI-H1650 | 0.947 | 0.74 | 0.877 | 0.715 | 0.746 | 0.345 | 0.357 | 0.447 | 0.387 | 0.375 | 0.82 | 0.831 | 0.682 | 0.874 | 0.884 | 0.464 | 0.419 | 0.482 | 0.655 | 0.233
HCC-827 | 0.818 | 0.579 | 0.557 | 0.737 | 0.638 | 0.238 | 0.253 | 0.254 | 0.242 | 0.199 | 0.766 | 0.596 | 0.6 | 0.679 | 0.396 | 0.418 | 0.416 | 0.376 | 0.432 | 0.286
HCC-366 | 0.532 | 0.345 | 0.321 | 0.34 | 0.277 | 0.147 | 0.197 | 0.212 | 0.186 | 0.178 | 0.331 | 0.333 | 0.318 | 0.368 | 0.303 | 0.623 | 0.605 | 0.671 | 0.635 | 0.547
HARA | 0.8 | 0.802 | 0.971 | 0.694 | 0.676 | 0.246 | 0.234 | 0.266 | 0.314 | 0.225 | 0.741 | 0.709 | 0.839 | 0.835 | 0.76 | 0.464 | 0.495 | 0.464 | – | 0.425
NCI-H322M | 0.91 | 0.786 | 0.817 | 0.776 | 0.746 | 0.666 | 0.653 | 0.64 | 0.644 | 0.654 | 0.849 | 0.827 | 0.864 | 0.857 | 0.884 | 0.813 | 0.782 | 0.852 | 0.909 | 0.828
LXF-289 | 1.22 | 1 | 1.09 | 1.07 | 1.23 | 0.959 | 0.914 | 0.83 | 0.863 | 0.971 | 1.03 | 1.01 | 1.05 | 1.08 | 1.02 | 0.491 | 0.556 | 0.472 | 0.459 | 0.44
A549 | 0.375 | 0.312 | 0.302 | 0.331 | 0.414 | – | – | – | – | – | 0.376 | 0.3 | 0.299 | 0.3 | 0.269 | 0.177 | 0.165 | 0.126 | 0.136 | 0.132
NCI-H1648 | 1.05 | 0.906 | 0.84 | 0.739 | 0.873 | 0.745 | 0.87 | 0.584 | 0.705 | 0.632 | 0.99 | 0.664 | 0.8 | 0.981 | 0.552 | – | – | – | – | –
NCI-H1623 | – | – | – | – | – | – | – | – | – | – | – | – | – | – | – | 0.635 | 0.636 | 0.57 | 0.354 | 0.544
Calu-6 | 0.629 | 0.503 | 0.617 | 0.596 | 0.426 | – | – | – | – | – | 0.589 | 0.6 | 0.622 | 0.554 | 0.557 | – | – | – | – | –
NCI-H1563 | – | – | – | – | – | 0.83 | 0.768 | 0.811 | 1.13 | 0.787 | – | – | – | – | – | 0.653 | 0.682 | 0.653 | 0.806 | 0.739
NCI-H1299 | 1.02 | 0.953 | 0.983 | 0.963 | 0.983 | – | – | – | – | – | 0.97 | 0.963 | 0.834 | 0.864 | 0.803 | – | – | – | – | –
EBC-1 | 0.904 | 0.668 | 0.715 | 0.607 | 0.493 | – | – | – | – | – | 0.664 | 0.69 | 0.689 | 0.675 | 0.558 | – | – | – | – | –
IA-LM | 1.22 | 0.814 | 0.906 | 0.651 | 0.814 | – | – | – | – | – | 0.797 | 0.81 | 0.724 | 0.708 | 0.875 | – | – | – | – | –
ABC-1 | 0.827 | 0.78 | 0.582 | 0.658 | 0.89 | – | – | – | – | – | 0.851 | 0.68 | 0.698 | 0.983 | 0.935 | 0.208 | 0.232 | 0.278 | 0.281 | 0.221
NCI-H1703 | 0.807 | 0.479 | 0.38 | 0.459 | 0.581 | – | – | – | – | – | 0.533 | 0.513 | 0.384 | 0.38 | 0.31 | – | – | – | – | –
